# Source: US20100267561A1, “HERBICIDAL PYRIDAZINONE DERIVATIVES” (priority 2007, published 2010)
# Columns and labels:
# Assay in all cases: Test B pre-/postemergence plant response
# Type in all cases: in vivo
# [1] = system: catchweed bedstraw (Galium aparine); conditions: Preemergence
# How it was run: (§1)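 Seeds were sown and sprayed preemergence, while plants at 2 to 18 cm (1- to 4-leaf stage) got postemergence sprays. Compounds were formulated in a non-phytotoxic solvent mixture with surfactant. After 13 to 15 days in a greenhouse, injury was rated visually against untreated controls, 0 (no effect) to 100 (complete control).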
# [2] = system: wheat (Triticum aestivum); conditions: for Wheat plant response rating: 8 g ai/ha
# How it was run: as §1
# [3] = system: yellow nutsedge (Cyperus esculentus); conditions: for Nutsedge, Yellow plant response rating: 8 g ai/ha
# How it was run: as §1
# [4] = system: cocklebur (Xanthium strumarium); conditions: for Cocklebur plant response rating: 8 g ai/ha
# How it was run: as §1
# [5] = system: corn (Zea mays); conditions: for Corn plant response rating: 8 g ai/ha
# How it was run: as §1
# [6] = system: downy bromegrass (Bromus tectorum); conditions: for Bromegrass, Downy plant response rating: 8 g ai/ha
# How it was run: as §1
# [7] = system: Russian thistle (Salsola iberica); conditions: Preemergence
# How it was run: as §1
# [8] = system: blackgrass (Alopecurus myosuroides); conditions: for Blackgrass plant response rating: 8 g ai/ha
# How it was run: as §1
# [9] = system: morningglory (Ipomoea coccinea); conditions: for Morningglory plant response rating: 8 g ai/ha
# How it was run: as §1
# [10] = system: kochia (Kochia scoparia); conditions: for Kochia plant response rating: 8 g ai/ha
# How it was run: as §1
# [11] = system: lambsquarters (Chenopodium album); conditions: for Lambsquarters plant response rating: 8 g ai/ha
# How it was run: as §1
# [12] = system: soybean (Glycine max); conditions: for Soybean plant response rating: 8 g ai/ha
# How it was run: as §1
# [13] = system: bermudagrass (Cynodon dactylon); conditions: for Bermudagrass plant response rating: 8 g ai/ha
# How it was run: as §1
# [14] = system: surinam grass (Brachiaria decumbens); conditions: for Surinam Grass plant response rating: 8 g ai/ha
# How it was run: as §1
# [15] = 16 g ai/ha, scale 0 to 100 (0 no effect, 100 complete control)
# [16] = 31 g ai/ha, 0 to 100 scale, 0 no effect, 100 complete control
# [17] = Postemergence, 16 g ai/ha, scale 0 to 100
# [18] = Postemergence, 31 g ai/ha, scale 0 to 100, 0 no effect, 100 complete control
# [19] = Postemergence, 62 g ai/ha, scale 0 to 100
# [20] = Preemergence, 16 g ai/ha, scale 0 to 100 (0 no effect, 100 complete control)
# [21] = Preemergence, 31 g ai/ha, 0 to 100 scale, 0 no effect, 100 complete control
# [22] = Preemergence, 62 g ai/ha, scale 0 to 100
smiles,measurement,setting,value
CCc1cc(-c2ccc(F)cc2)nn1-c1c(O)cnn(C)c1=O [Compound 25],"Plant response rating, Galium",[1]; [15],0
same,"Plant response rating, Galium",[1]; [16],0
same,"Plant response rating, Galium","[1]; 62 g ai/ha, scale 0 to 100",0
same,Galium plant response rating,"[1]; 8 g ai/ha, scale 0 to 100",0
same,Wheat plant response rating,"[2]; postemergence, 0-100 scale",0
same,"Plant response rating, Wheat",[2]; [17],0
same,"Plant response rating, Wheat",[2]; [18],0
same,"Plant response rating, Wheat",[2]; [19],0
same,"Plant response rating, Wheat",[2]; [20],0
same,"Plant response rating, Wheat",[2]; [21],0
same,"Plant response rating, Wheat",[2]; [22],15
same,Wheat plant response rating,"[2]; Preemergence, scale 0 to 100",0
same,"Nutsedge, Yellow plant response rating","[3]; postemergence, 0-100 scale",0
same,"Plant response rating, Nutsedge, Yellow",[3]; [17],0
same,"Plant response rating, Nutsedge, Yellow",[3]; [18],0
same,"Plant response rating, Nutsedge, Yellow",[3]; [19],0
same,"Plant response rating, Nutsedge, Yellow",[3]; [20],0
same,"Plant response rating, Nutsedge, Yellow",[3]; [21],0
same,"Plant response rating, Nutsedge, Yellow",[3]; [22],0
same,"Nutsedge, Yellow plant response rating","[3]; Preemergence, scale 0 to 100",0
same,Cocklebur plant response rating,"[4]; postemergence, 0-100 scale",0
same,"Plant response rating, Cocklebur",[4]; [17],0
same,"Plant response rating, Cocklebur",[4]; [18],0
same,"Plant response rating, Cocklebur",[4]; [19],0
same,"Plant response rating, Cocklebur",[4]; [20],0
same,"Plant response rating, Cocklebur",[4]; [21],0
same,"Plant response rating, Cocklebur",[4]; [22],0
same,Cocklebur plant response rating,"[4]; Preemergence, scale 0 to 100",0
same,Corn plant response rating,"[5]; postemergence, 0-100 scale",0
same,"Plant response rating, Corn",[5]; [17],50
same,"Plant response rating, Corn",[5]; [18],95
same,"Plant response rating, Corn",[5]; [20],5
same,"Plant response rating, Corn",[5]; [21],50
same,"Plant response rating, Corn",[5]; [22],75
same,Corn plant response rating,"[5]; Preemergence, scale 0 to 100",0
same,"Bromegrass, Downy plant response rating","[6]; postemergence, 0-100 scale",0
same,"Plant response rating, Bromegrass, Downy",[6]; [17],0
same,"Plant response rating, Bromegrass, Downy",[6]; [18],10
same,"Plant response rating, Bromegrass, Downy",[6]; [19],15
same,"Plant response rating, Bromegrass, Downy",[6]; [20],0
same,"Plant response rating, Bromegrass, Downy",[6]; [21],0
same,"Plant response rating, Bromegrass, Downy",[6]; [22],0
same,"Bromegrass, Downy plant response rating","[6]; Preemergence, scale 0 to 100",0
same,"Plant response rating, Russian Thistle",[7]; [15],0
same,"Plant response rating, Russian Thistle",[7]; [16],0
same,"Plant response rating, Russian Thistle","[7]; 62 g ai/ha, scale 0 to 100",0
same,Russian Thistle plant response rating,"[7]; 8 g ai/ha, scale 0 to 100",0
same,Blackgrass plant response rating,"[8]; postemergence, 0-100 scale",0
same,"Plant response rating, Blackgrass",[8]; [17],40
same,"Plant response rating, Blackgrass",[8]; [18],75
same,"Plant response rating, Blackgrass",[8]; [19],95
same,"Plant response rating, Blackgrass",[8]; [22],90
same,Blackgrass plant response rating,"[8]; Preemergence, scale 0 to 100",70
same,Morningglory plant response rating,"[9]; postemergence, 0-100 scale",0
same,"Plant response rating, Morningglory",[9]; [17],0
same,"Plant response rating, Morningglory",[9]; [18],0
same,"Plant response rating, Morningglory",[9]; [19],20
same,"Plant response rating, Morningglory",[9]; [20],0
same,"Plant response rating, Morningglory",[9]; [21],0
same,"Plant response rating, Morningglory",[9]; [22],0
same,Morningglory plant response rating,"[9]; Preemergence, scale 0 to 100",0
same,Kochia plant response rating,"[10]; postemergence, 0-100 scale",0
same,"Plant response rating, Kochia",[10]; [17],0
same,"Plant response rating, Kochia",[10]; [18],0
same,"Plant response rating, Kochia",[10]; [19],0
same,"Plant response rating, Kochia",[10]; [20],0
same,"Plant response rating, Kochia",[10]; [22],50
same,Kochia plant response rating,"[10]; Preemergence, scale 0 to 100",0
same,Lambsquarters plant response rating,"[11]; postemergence, 0-100 scale",0
same,"Plant response rating, Lambsquarters",[11]; [17],0
same,"Plant response rating, Lambsquarters",[11]; [18],0
same,"Plant response rating, Lambsquarters",[11]; [19],10
same,"Plant response rating, Lambsquarters",[11]; [20],0
same,"Plant response rating, Lambsquarters",[11]; [21],0
same,"Plant response rating, Lambsquarters",[11]; [22],40
same,Lambsquarters plant response rating,"[11]; Preemergence, scale 0 to 100",0
same,Soybean plant response rating,"[12]; postemergence, 0-100 scale",0
same,"Plant response rating, Soybean",[12]; [17],0
same,"Plant response rating, Soybean",[12]; [18],0
same,"Plant response rating, Soybean",[12]; [19],0
same,"Plant response rating, Soybean",[12]; [20],0
same,"Plant response rating, Soybean",[12]; [21],0
same,"Plant response rating, Soybean",[12]; [22],0
same,Soybean plant response rating,"[12]; Preemergence, scale 0 to 100",0
same,Bermudagrass plant response rating,"[13]; postemergence, 0-100 scale",0
same,"Plant response rating, Bermudagrass",[13]; [17],0
same,"Plant response rating, Bermudagrass",[13]; [18],60
same,"Plant response rating, Bermudagrass",[13]; [19],60
same,Bermudagrass plant response rating,"[13]; Preemergence, scale 0 to 100 (0 no effect, 100 complete control)",0
same,"Plant response rating, Bermudagrass",[13]; [20],70
same,"Plant response rating, Bermudagrass",[13]; [21],80
same,"Plant response rating, Bermudagrass",[13]; [22],100
same,Surinam Grass plant response rating,"[14]; postemergence, 0-100 scale",50
same,"Plant response rating, Surinam Grass",[14]; [17],60
same,"Plant response rating, Surinam Grass",[14]; [18],95
same,"Plant response rating, Surinam Grass",[14]; [19],100
same,"Plant response rating, Surinam Grass",[14]; [20],85
same,"Plant response rating, Surinam Grass",[14]; [21],85
same,"Plant response rating, Surinam Grass",[14]; [22],100
same,Surinam Grass plant response rating,"[14]; Preemergence, scale 0 to 100",50
